# According to PubChem BioAssay AID1919009 (Molecular Pharmacology Branch, DTP, NCI, 2023):
# Tested on: K24384-001-R-PDC complex spheroid growth
# Assay: Anticancer human tumor K24384-001-R-PDC patient-derived pancreatic adenocarcinoma cell line growth inhibition [AhR]
# Settings: for IC50: curve of first compound; for viability, T/C: stronger effect = lower value
# Method in brief: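 Spheroids combined tumor cells with HUVEC endothelial cells and human MSCs as stroma. AhR antagonists were paired with standard or investigational drugs, each dosed in half-log steps down from near clinical Cmax, or from 10 microM where Cmax was unknown.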
# [1] = second compound 0.1 µM, first compound 0.00316 µM
# [2] = second compound 0.1 µM, first compound 0.01 µM
# [3] = second compound 0.1 µM, first compound 0.0316 µM
# [4] = second compound 0.1 µM, first compound 0.1 µM
# [5] = second compound 0.316 µM, first compound 0.00316 µM
# [6] = second compound 0.316 µM, first compound 0.01 µM
# [7] = second compound 0.316 µM, first compound 0.0316 µM
# [8] = second compound 0.316 µM, first compound 0.1 µM
# [9] = second compound 1 µM, first compound 0.00316 µM
# [10] = second compound 1 µM, first compound 0.01 µM
# [11] = second compound 1 µM, first compound 0.0316 µM
# [12] = second compound 1 µM, first compound 0.1 µM
# [13] = second compound 3.16 µM, first compound 0.00316 µM
# [14] = second compound 3.16 µM, first compound 0.01 µM
# [15] = second compound 3.16 µM, first compound 0.0316 µM
# [16] = second compound 3.16 µM, first compound 0.1 µM
# [17] = second compound 10 µM, first compound 0.00316 µM
# [18] = second compound 10 µM, first compound 0.01 µM
# [19] = second compound 10 µM, first compound 0.0316 µM
# [20] = second compound 10 µM, first compound 0.1 µM
# [21] = second compound 0.1 µM, first compound 0.316 µM
# [22] = second compound 0.1 µM, first compound 1 µM
# [23] = second compound 0.1 µM, first compound 3.16 µM
# [24] = second compound 0.1 µM, first compound 10 µM
# [25] = second compound 0.316 µM, first compound 0.316 µM
# [26] = second compound 0.316 µM, first compound 1 µM
# [27] = second compound 0.316 µM, first compound 3.16 µM
# [28] = second compound 0.316 µM, first compound 10 µM
# [29] = second compound 1 µM, first compound 0.316 µM
# [30] = second compound 1 µM, first compound 1 µM
# [31] = second compound 1 µM, first compound 3.16 µM
# [32] = second compound 1 µM, first compound 10 µM
# [33] = second compound 3.16 µM, first compound 0.316 µM
# [34] = second compound 3.16 µM, first compound 1 µM
# [35] = second compound 3.16 µM, first compound 3.16 µM
# [36] = second compound 3.16 µM, first compound 10 µM
# [37] = second compound 10 µM, first compound 0.316 µM
# [38] = second compound 10 µM, first compound 1 µM
# [39] = second compound 10 µM, first compound 3.16 µM
# [40] = second compound 10 µM, first compound 10 µM
# 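Throughout, for viability, T/C: percent of DMSO vehicle-treated spheroid viability set as 100%.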
Compound,IC50 (second compound 0.1 µM),IC50 (second compound 0.316 µM),IC50 (second compound 1 µM),IC50 (second compound 3.16 µM),IC50 (second compound 10 µM),"viability, T/C [3]","viability, T/C [4]","viability, T/C [7]","viability, T/C [8]","viability, T/C [11]","viability, T/C [12]","viability, T/C [15]","viability, T/C [16]","viability, T/C [19]","viability, T/C [20]","viability, T/C [21]","viability, T/C [22]","viability, T/C [25]","viability, T/C [26]","viability, T/C [29]",also measured
COc1cc(C2c3cc4c(cc3C(OC3OC5COC(C)OC5C(O)C3O)C3COC(=O)C23)OCO4)cc(OC)c1O (stereo not given) + Cc1ccccc1N=Nc1ccc(NC(=O)c2ccnn2C)c(C)c1,955 nM,1090 nM,830 nM,969 nM,2730 nM,97.7%,96.3%,104%,92.5%,102%,101%,78.3%,89.1%,102%,98.5%,77.9%,49.6%,66.3%,55.2%,83.1%,"viability, T/C [23]: 35.2%; viability, T/C [24]: 35.6%; viability, T/C [27]: 36.5%; viability, T/C [28]: 38.7%; viability, T/C [30]: 43.6%; viability, T/C [31]: 33.9%; viability, T/C [32]: 31.7%; viability, T/C [33]: 64.4%; viability, T/C [34]: 51.6%; viability, T/C [35]: 39.7%; viability, T/C [36]: 35.5%; viability, T/C [37]: 88.6%; viability, T/C [38]: 63.9%; viability, T/C [39]: 46.2%; viability, T/C [40]: 46.4%"
Nc1ccn(C2OC(CO)C(O)C2(F)F)c(=O)n1 (stereo not given) + Cc1ccccc1N=Nc1ccc(NC(=O)c2ccnn2C)c(C)c1,109 nM,168 nM,164 nM,184 nM,493 nM,67.6%,51.8%,61.8%,53.7%,67.6%,57.4%,58%,60.4%,69.3%,63.2%,35.9%,29.9%,44.5%,28%,40.6%,"viability, T/C [23]: 22.9%; viability, T/C [24]: 20.6%; viability, T/C [27]: 19.2%; viability, T/C [28]: 19.7%; viability, T/C [30]: 25.8%; viability, T/C [31]: 21.2%; viability, T/C [32]: 15.1%; viability, T/C [33]: 41.9%; viability, T/C [34]: 25.9%; viability, T/C [35]: 20.5%; viability, T/C [36]: 17.1%; viability, T/C [37]: 60%; viability, T/C [38]: 35.3%; viability, T/C [39]: 28.7%; viability, T/C [40]: 20.1%"
Nc1ncn(C2CC(O)C(CO)O2)c(=O)n1 (stereo not given) + Cc1ccccc1N=Nc1ccc(NC(=O)c2ccnn2C)c(C)c1,> 1000 nM,> 1000 nM,> 1000 nM,> 1000 nM,> 1000 nM,90.2%,79.4%,100%,103%,90%,89.5%,83.5%,68.9%,97.7%,79%,87.5%,68.8%,80.6%,71.4%,73.2%,"viability, T/C [1]: 108%; viability, T/C [2]: 114%; viability, T/C [5]: 102%; viability, T/C [6]: 112%; viability, T/C [9]: 103%; viability, T/C [10]: 99.2%; viability, T/C [30]: 66.9%; viability, T/C [13]: 89.4%; viability, T/C [14]: 85.7%; viability, T/C [33]: 64.9%; viability, T/C [34]: 57.5%; viability, T/C [17]: 93.6%; viability, T/C [18]: 95.1%; viability, T/C [37]: 66.7%; viability, T/C [38]: 58.1%"

# Stronger by IC50 (second compound 0.1 µM), values ahead:
IC50 (second compound 0.1 µM),IC50 (second compound 0.316 µM),IC50 (second compound 1 µM),IC50 (second compound 3.16 µM),IC50 (second compound 10 µM),Compound,"viability, T/C [3]","viability, T/C [4]","viability, T/C [7]","viability, T/C [8]","viability, T/C [11]","viability, T/C [12]","viability, T/C [15]","viability, T/C [16]","viability, T/C [19]","viability, T/C [20]","viability, T/C [21]","viability, T/C [22]","viability, T/C [25]","viability, T/C [26]","viability, T/C [29]",also measured
28.1 nM,24.5 nM,28.4 nM,19.6 nM,30.7 nM,CC[C@@]1(O)C(=O)OCc2c1cc1n(c2=O)Cc2cc3c(CN(C)C)c(O)ccc3nc2-1 + Cc1ccccc1N=Nc1ccc(NC(=O)c2ccnn2C)c(C)c1,48.5%,44.9%,46.9%,39.6%,50.2%,38.4%,38.3%,39.1%,51.5%,47.4%,–,–,–,–,–,"viability, T/C (second compound 0.1 µM, first compound 0.000316 µM): 93.4%; viability, T/C (second compound 0.1 µM, first compound 0.001 µM): 96.2%; viability, T/C [1]: 95.4%; viability, T/C [2]: 72.2%; viability, T/C (second compound 0.316 µM, first compound 0.000316 µM): 97.3%; viability, T/C (second compound 0.316 µM, first compound 0.001 µM): 90.7%; viability, T/C [5]: 98.6%; viability, T/C [6]: 70.5%; viability, T/C (second compound 1 µM, first compound 0.000316 µM): 101%; viability, T/C (second compound 1 µM, first compound 0.001 µM): 94.1%; viability, T/C [9]: 94.7%; viability, T/C [10]: 67.8%; viability, T/C (second compound 3.16 µM, first compound 0.000316 µM): 87.3%; viability, T/C (second compound 3.16 µM, first compound 0.001 µM): 99.8%; viability, T/C [13]: 92.5%; viability, T/C [14]: 65.8%; viability, T/C (second compound 10 µM, first compound 0.000316 µM): 111%; viability, T/C (second compound 10 µM, first compound 0.001 µM): 101%; viability, T/C [17]: 109%; viability, T/C [18]: 68.7%"
68.9 nM,54.7 nM,< 31.6 nM,< 31.6 nM,50.4 nM,COc1cccc2c1C(=O)c1c(O)c3c(c(O)c1C2=O)CC(O)(C(=O)CO)CC3OC1CC(N)C(O)C(C)O1 (stereo not given) + Cc1ccccc1N=Nc1ccc(NC(=O)c2ccnn2C)c(C)c1,57.9%,45.7%,53.7%,46%,42%,42%,47.6%,40.1%,55.9%,41.3%,22.5%,7.05%,19%,8.11%,12.8%,"viability, T/C [23]: 3.16%; viability, T/C [24]: 7.56%; viability, T/C [27]: 2.84%; viability, T/C [28]: 8.04%; viability, T/C [30]: 7.59%; viability, T/C [31]: 2.46%; viability, T/C [32]: 8.88%; viability, T/C [33]: 14.3%; viability, T/C [34]: 2.98%; viability, T/C [35]: 6.7%; viability, T/C [36]: 6.51%; viability, T/C [37]: 9.04%; viability, T/C [38]: 8.14%; viability, T/C [39]: 3.61%; viability, T/C [40]: 9.36%"
